#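 Five compound concentrations were applied to cells in 96-well plates for 48 hours; endpoints were derived by simple linear interpolation of the resulting dose-response curve. Here, GI50 denotes the concentration required for 50% inhibition of growth. At the TGI there is no net growth.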
# How the values were obtained:
# Assay in all cases: growth of human tumour cells (NCI), 48 h
# [1] = test system: NCI/ADR-RES ovarian
# [2] = test system: HL-60(TB) leukemia
# [3] = test system: IGROV1 ovarian
# [4] = test system: SN12C renal
# [5] = test system: OVCAR-4 ovarian
# [6] = test system: OVCAR-5 ovarian
# [7] = test system: COLO 205 colon
# [8] = test system: EKVX NSCLC
# [9] = test system: NCI-H226 lung
# [10] = test system: UACC-62 melanoma
# [11] = test system: SK-MEL-28 melanoma
# [12] = test system: U251 CNS
# [13] = test system: MDA-MB-468 breast
# [14] = test system: CAKI-1 renal
# [15] = test system: KM12 colon
# [16] = test system: SW-620 colon
# [17] = test system: NCI-H460 lung
# [18] = test system: 786-0 renal
# [19] = test system: SR leukemia
# [20] = test system: PC-3 prostate
# [21] = test system: MDA-MB-435
# [22] = test system: HT29 colon
# [23] = test system: A498 renal
# [24] = test system: ACHN renal
# [25] = test system: MOLT-4 leukemia
# [26] = test system: UACC-257 melanoma
# [27] = test system: K-562 leukemia
# [28] = test system: HCC-2998 colon
# [29] = test system: T-47D breast
# [30] = test system: SK-MEL-5 melanoma
# [31] = test system: HCT-116 colon
# [32] = test system: UO-31 renal
# [33] = test system: MCF7 breast
# [34] = test system: SNB-19 CNS
# [35] = test system: HOP-92 NSCLC
# [36] = test system: RXF 393 renal
# [37] = test system: SNB-75 CNS
# [38] = test system: CCRF-CEM leukemia
# [39] = test system: A549 NSCLC
# [40] = test system: OVCAR-8 ovarian
# [41] = test system: RPMI-8226 leukemia
# [42] = test system: SF-539 CNS
# [43] = test system: SK-OV-3 ovarian
# [44] = test system: SF-268 CNS
# [45] = test system: MALME-3M melanoma
# [46] = test system: MDA-MB-231 breast
# [47] = test system: HS 578T breast
# [48] = test system: NCI-H522 lung
# [49] = test system: LOX IMVI melanoma
# [50] = test system: SK-MEL-2 melanoma
# [51] = test system: TK-10 renal
# [52] = test system: NCI-H23 lung
# [53] = test system: BT-549 breast
# [54] = test system: SF-295 CNS
# [55] = test system: OVCAR-3 ovarian
# [56] = test system: HOP-62 NSCLC
# [57] = test system: DU-145 prostate
# [58] = test system: M14 melanoma
# [59] = test system: HCT-15 colon
structure (smiles),measurement,setting,value
O=C(N/N=C/c1ccc(Cl)cc1)c1ccc(OCc2nc3ccc(Cl)cc3[nH]2)cc1,GI50,[1],15.9 µM
same,TGI,[1],68 µM
same,GI50,[2],26.4 µM
same,TGI,[2],> 100 µM
same,GI50,[3],11.6 µM
same,TGI,[3],24.2 µM
same,GI50,[4],12.7 µM
same,TGI,[4],25.8 µM
same,GI50,[5],15.5 µM
same,TGI,[5],31.4 µM
same,GI50,[6],14.5 µM
same,TGI,[6],32.7 µM
same,GI50,[7],15.3 µM
same,TGI,[7],32.1 µM
same,GI50,[8],14.9 µM
same,TGI,[8],28.9 µM
same,GI50,[9],14.1 µM
same,TGI,[9],30.2 µM
same,GI50,[10],12.6 µM
same,TGI,[10],25.4 µM
same,GI50,[11],12.5 µM
same,TGI,[11],25.3 µM
same,GI50,[12],14.2 µM
same,TGI,[12],33.1 µM
same,GI50,[13],11.6 µM
same,TGI,[13],24.4 µM
same,GI50,[14],17 µM
same,TGI,[14],34 µM
same,GI50,[15],20.5 µM
same,TGI,[15],66 µM
same,GI50,[16],6.79 µM
same,TGI,[16],23 µM
same,GI50,[17],4.68 µM
same,TGI,[17],16.8 µM
same,GI50,[18],4.34 µM
same,TGI,[18],16.9 µM
same,GI50,[19],0.62 µM
same,TGI,[19],> 100 µM
same,GI50,[20],7.48 µM
same,TGI,[20],24.9 µM
same,GI50,[21],14.6 µM
same,TGI,[21],31 µM
same,GI50,[22],15.2 µM
same,TGI,[22],45.5 µM
same,GI50,[23],21.4 µM
same,TGI,[23],38.4 µM
same,GI50,[24],14.3 µM
same,TGI,[24],27.8 µM
same,GI50,[25],7.51 µM
same,TGI,[25],27.3 µM
same,GI50,[26],21.1 µM
same,TGI,[26],46.6 µM
same,GI50,[27],3.81 µM
same,TGI,[27],21.3 µM
same,GI50,[28],11.5 µM
same,TGI,[28],25.8 µM
same,GI50,[29],19.3 µM
same,TGI,[29],42.9 µM
same,GI50,[30],15.1 µM
same,TGI,[30],30.1 µM
same,GI50,[31],4.46 µM
same,TGI,[31],19.2 µM
same,GI50,[32],13.1 µM
same,TGI,[32],26.3 µM
same,GI50,[33],10 µM
same,TGI,[33],23.2 µM
same,GI50,[34],15.4 µM
same,TGI,[34],29.5 µM
same,GI50,[35],13.4 µM
same,TGI,[35],30.8 µM
same,GI50,[36],10.5 µM
same,TGI,[36],24.4 µM
same,GI50,[37],5.23 µM
same,TGI,[37],19.8 µM
same,GI50,[38],6.78 µM
same,TGI,[38],37.1 µM
same,GI50,[39],12 µM
same,TGI,[39],34.2 µM
same,GI50,[40],18.1 µM
same,TGI,[40],55.5 µM
same,GI50,[41],16.6 µM
same,TGI,[41],> 100 µM
same,GI50,[42],16.6 µM
same,TGI,[42],30.6 µM
same,GI50,[43],16 µM
same,TGI,[43],32.8 µM
same,GI50,[44],21.2 µM
same,TGI,[44],53.5 µM
same,GI50,[45],11.7 µM
same,TGI,[45],24.5 µM
same,GI50,[46],10.8 µM
same,TGI,[46],23.2 µM
same,GI50,[47],11.2 µM
same,TGI,[47],50.9 µM
same,GI50,[48],19.7 µM
same,TGI,[48],41.6 µM
same,GI50,[49],6.22 µM
same,TGI,[49],19.1 µM
same,GI50,[50],18.6 µM
same,TGI,[50],40 µM
same,GI50,[51],19.5 µM
same,TGI,[51],38.3 µM
same,GI50,[52],6.59 µM
same,TGI,[52],19.7 µM
same,GI50,[53],19.5 µM
same,TGI,[53],41.6 µM
same,GI50,[54],12 µM
same,TGI,[54],24.4 µM
same,GI50,[55],18 µM
same,TGI,[55],42.3 µM
same,GI50,[56],15.7 µM
same,TGI,[56],31.6 µM
same,GI50,[57],10.8 µM
same,TGI,[57],25.3 µM
same,GI50,[58],10.2 µM
same,TGI,[58],25.3 µM
same,GI50,[59],8.27 µM
same,TGI,[59],21.9 µM
C=C1CC[C@H](C(=C)C)[C@H]2C=C(C)C(=O)C3=C(C(=O)[C@@](C)(O)C3)[C@H]12,GI50,[1],1.95 µM
same,TGI,[1],5.52 µM
same,GI50,[2],0.853 µM
same,TGI,[2],3.76 µM
same,GI50,[3],1.28 µM
same,TGI,[3],2.88 µM
same,GI50,[4],1.19 µM
same,TGI,[4],2.55 µM
same,GI50,[5],1.55 µM
same,TGI,[5],2.99 µM
same,GI50,[6],1.52 µM
same,TGI,[6],2.98 µM
same,GI50,[7],1.74 µM
same,TGI,[7],3.25 µM
same,GI50,[8],1.7 µM
same,TGI,[8],3.3 µM
same,GI50,[9],1.47 µM
same,TGI,[9],3.06 µM
same,GI50,[10],1.23 µM
same,TGI,[10],2.48 µM
same,GI50,[11],1.63 µM
same,TGI,[11],2.99 µM
same,GI50,[12],1.09 µM
same,TGI,[12],2.38 µM
same,GI50,[13],0.528 µM
same,TGI,[13],1.94 µM
same,GI50,[14],1.57 µM
same,TGI,[14],2.98 µM
same,GI50,[15],1.46 µM
same,TGI,[15],3.27 µM
same,GI50,[16],1.38 µM
same,TGI,[16],3.11 µM
same,GI50,[17],1.48 µM
same,TGI,[17],4.04 µM
same,GI50,[18],1.75 µM
same,TGI,[18],3.17 µM
same,GI50,[19],0.324 µM
same,TGI,[19],2.06 µM
same,GI50,[20],1.67 µM
same,TGI,[20],3.33 µM
same,GI50,[21],1.55 µM
same,TGI,[21],3.14 µM
same,GI50,[22],1.07 µM
same,TGI,[22],3.23 µM
same,GI50,[23],3.56 µM
same,TGI,[23],8.5 µM
same,GI50,[24],1.48 µM
same,TGI,[24],2.8 µM
same,GI50,[25],1.21 µM
same,TGI,[25],3.75 µM
same,GI50,[26],1.35 µM
same,TGI,[26],2.76 µM
same,GI50,[27],0.611 µM
same,TGI,[27],13.1 µM
same,GI50,[28],1.28 µM
same,TGI,[28],2.54 µM
same,GI50,[30],1.48 µM
same,TGI,[30],2.83 µM
same,GI50,[31],0.801 µM
same,TGI,[31],2.07 µM
same,GI50,[32],1.12 µM
same,TGI,[32],2.32 µM
same,GI50,[33],0.639 µM
same,TGI,[33],2.02 µM
same,GI50,[34],1.65 µM
same,TGI,[34],3.01 µM
same,GI50,[36],1.51 µM
same,TGI,[36],2.99 µM
same,GI50,[38],2.26 µM
same,TGI,[38],5.25 µM
same,GI50,[39],1.27 µM
same,TGI,[39],3 µM
same,GI50,[40],1.46 µM
same,TGI,[40],3.69 µM
same,GI50,[41],1.16 µM
same,TGI,[41],3.42 µM
same,GI50,[42],1.41 µM
same,TGI,[42],2.71 µM
same,GI50,[43],1.87 µM
same,TGI,[43],3.83 µM
same,GI50,[44],1.58 µM
same,TGI,[44],3.36 µM
same,GI50,[45],1.47 µM
same,TGI,[45],2.88 µM
same,GI50,[46],1.39 µM
same,TGI,[46],2.74 µM
same,GI50,[47],3.03 µM
same,TGI,[47],17.7 µM
same,GI50,[48],1.18 µM
same,TGI,[48],2.53 µM
same,GI50,[49],0.369 µM
same,TGI,[49],1.5 µM
same,GI50,[50],1.46 µM
same,TGI,[50],2.88 µM
same,GI50,[51],1.79 µM
same,TGI,[51],3.22 µM
same,GI50,[52],1.63 µM
same,TGI,[52],3.26 µM
same,GI50,[53],1.45 µM
same,TGI,[53],2.77 µM
same,GI50,[54],1.48 µM
same,TGI,[54],2.84 µM
same,GI50,[55],1.2 µM
same,TGI,[55],2.48 µM
same,GI50,[56],1.76 µM
same,TGI,[56],3.27 µM
same,GI50,[57],1.23 µM
same,TGI,[57],2.48 µM
same,GI50,[58],1.34 µM
same,TGI,[58],2.82 µM
same,GI50,[59],0.349 µM
same,TGI,[59],1.4 µM

# From PubChem BioAssay (NCI)
